Measured values from patent US9321772B2, “Substituted pyrazolo[3,4-D]pyrimidines and uses thereof” (The Regents of the University of California, priority 2011, dated 2016).
Entries after “also recorded” stand apart in the source; their conditions may differ.

What was measured:
ptc>dRet^MEN2B flies = test: Drosophila ptc>dRetMEN2B viability assay; assay type: in vivo; conditions: for notum, scutellum and cuticle defects of ptc>dRetMEN2B adults: drug fed flies; for effect of reducing erk gene dosage on drug efficacy in viability assay: ptc>dRetMEN2B
Excerpt: FIG. 1A. Suppression of Ret^MEN2B-induced developmental block and whole animal toxicity were scored based on number of embryos (n) that survived as pupae (x) and adults (y). Drugs were mixed into food and fed to flies starting at larval stages.
FIG. 1B. Percent viability of control or drug treated flies determined for pupae (x/n) and adults (y/n).
Described herein is a Drosophila MEN2B model in which an intracellular mutation in the Drosophila Ret ortholog (dRet) was targeted to the eye (Read, R. D. et al., Genetics, 2005. 171(3): p. 1057-81). […] The screen is conducted in developing drosophila embryos. Under normal circumstances, drosophila embryos pass through four developmental steps: embryo→larvae→pupae→adult. […] We calibrated the ptc>dRetMEN2B assay to permit 50% survival to pupariation and 0% survival to adulthood. Mutated forms of RET are believed to be causative in human thyroid cancers including multiple endocrine neoplasia types 2A and 2B (MEN2A and MEN2B). The screen identifies small molecules that (a) suppress the toxicity induced by oncogenic RET and (b) allow flies to develop to functional adults. […] 64(19): p. 7099-109; Sun, L. et al., J Med Chem, 2003. 46(7): p.

[1] = tested on: ptc>dRet^MEN2B wing cells; test: Wing-based assay for transformation and cell migration (ptc>dRetMEN2B); assay type: in vivo, Drosophila; conditions: oral administration
Excerpt: FIG. 4E. Quantification of ptc>dRet^MEN2B phenotypes. Invasion was established by scoring for single/groups of GFP-labeled cells that relocated away from the ptc boundary (FIG. 4C, asterisks). Basal migration was scored as indentation of the apical surface (see FIG. 2B, arrows). Proliferation was scored as significant widening of the ptc boundary. The number of wings analyzed under each condition is indicated in brackets.
We previously developed a wing-based assay for transformation and cell migration that we utilized to explore Ras- and Src-based tumorigenesis (Vidal, M., D. E. Larson, and R. L. Cagan, Dev Cell, 2006. 10(1): p. 33-44). In this assay, the ptc-GAL4 driver directed oncogene expression in a stripe along the anterior-posterior axis; oncogene-based transformation led to over-proliferation, epithelial-to-mesenchymal transition (EMT), and cell migration away from the ptc domain.

Src = Src (Homo sapiens, UniProt P12931); test: In vitro kinase assay, Src; assay type: biochemical; conditions: in vitro kinase profile, 1 μM
Method: (§1) Using in vitro kinase assays we tested AD57, AD36, and AD58 at 1 μM for activity against approximately one-half of the human kinome (FIG. 1E): 165 Ser/Thr kinases, 91 Tyr kinases, and 10 PI kinases were assayed, totaling 266 kinases (244 distinct kinases plus 22 mutant isoforms; see FIG. 6A-6C, FIG. 7A-7F, and FIG. 8 for measured inhibition values).
(§2) At least three major pathways are required for dRet^MEN2B-mediated transformation: Ras, Src, and glucose metabolism/PI3K (FIG. 3A; Ref (Read, R. D. et al., Genetics, 2005. 171(3): p. 1057-81)). We utilized in vitro kinase assays to assess compound activity against relevant kinases from each of these pathways, specifically Ret, B-Raf, Src, Tor, and S6K (FIG. 3B).

S6K = S6K (Homo sapiens, UniProt P23443); test: In vitro kinase assay, S6K; assay type: biochemical; conditions: in vitro kinase profile, 1 μM
Method: as §1, §2

mTor = mTor (Homo sapiens, UniProt P42345); test: In vitro kinase assay, mTor; assay type: biochemical; conditions: in vitro kinase profile, 1 μM
Method: as §1, §2

[2] = tested on: MZ-CRC-1 (MEN2B) cancer cell line; test: MZ-CRC-1 cell viability (MTT assay); assay type: cell-based, human
[3] = tested on: TT (MEN2A) thyroid cancer cells; test: TT cell viability (MTT assay); assay type: cell-based, human
Method: (§3) FIG. 18A-18D. […] FIG. 18A. MEN2B (MZ) thyroid cancer cells were treated with the indicated concentrations of each inhibitor (7 days) and cell viability was quantitated by MTT assay. FIG. 18B. MEN2A (TT) thyroid cancer cells were treated with the indicated concentrations of each inhibitor (7 days) and cell viability was quantitated by MTT assay. FIG. 18C. […] Change in tumor volume was calculated per mouse. Values shown are the median percent change per group. 20 and 10 animals for vehicle and drug treated mice, respectively, were analyzed. FIG. 18D. Body weight measurements of AD80, Vandetanib (VD) and vehicle treated nude mice transplanted with TT cells. Values shown are the median of 20 and 10 animals for vehicle and drug treated mice, respectively.

[4] = tested on: TT cell tumors in athymic nu/nu mice; test: MEN2 (TT) mouse xenograft model; assay type: in vivo; conditions: for reduction of tumor progression relative to vehicle: nude mice transplanted with TT cells, oral gavage, median per group; for toxicity as assessed by animal body weights / tumor growth, in words: nude mice with TT tumors, PO administration
Method: FIG. 11. […] TT thyroid cancer cells were implanted into athymic nu/nu mice subcutaneously into the right flank under the conditions listed. Upon establishment of tumors, drugs were administered by oral gavage (5 days ON/2 days OFF schedule). Tumors were measured using digital calipers. […] VD=vandetanib.
as §3
TT-based tumors were grown for 46 days in athymic nu/nu male mice prior to drug administration.

[5] = Pharmacokinetic profile in murine models; assay type: in vivo, mouse
Excerpt: In addition to the experiments with AD57 and AD80 in drosophila, we have examined these molecules in murine models of cancer.

[6] = tested on: ER4 cells (ER4 subline of HCC827 cells resistant to erlotinib); test: Erlotinib sensitivity of ER4 cells with AXL inhibitor treatment; assay type: cell-based; conditions: 0.1, 1, 10 micromolar in combination with erlotinib
Excerpt: FIG. 21A-21C. Overcoming acquired resistance through AXL inhibitor treatment. Erlotinib plus AD57, AD80, or AD81 in ER4 cells (ER4 subline of HCC827 cells that are resistant to erlotinib treatment). Legend: diamond symbols are DMSO control, square symbols are 0.1 micromolar of compound, triangle symbols are 1 micromolar of compound, x symbol are 10 micromolar of compound, all in combination with erlotinib.

[7] = tested on: ER4 cells (ER4 subline of HCC827 cells resistant to erlotinib); test: Apoptosis in ER4 cells (PARP cleavage, BIM induction); assay type: cell-based; conditions: 1 micromolar combined with erlotinib, 24 hour exposure
Method: FIG. 22. Induction of apoptosis by combined EGFR and AXL inhibition. ER4 cells (ER4 subline of HCC827 cells that are resistant to erlotinib treatment) plated at 0.5×10^6 cells/condition. 24-hour drug exposure. Apoptosis measured by induction of PARP cleavage and BIM induction. E is erlotinib, AD57 at 1 micromolar, AD80 at 1 micromolar, AD81 at 10 micromolar.

[8] = oral administration, drug mixed into food

Sequence of Src (P12931 whole entry, canonical isoform): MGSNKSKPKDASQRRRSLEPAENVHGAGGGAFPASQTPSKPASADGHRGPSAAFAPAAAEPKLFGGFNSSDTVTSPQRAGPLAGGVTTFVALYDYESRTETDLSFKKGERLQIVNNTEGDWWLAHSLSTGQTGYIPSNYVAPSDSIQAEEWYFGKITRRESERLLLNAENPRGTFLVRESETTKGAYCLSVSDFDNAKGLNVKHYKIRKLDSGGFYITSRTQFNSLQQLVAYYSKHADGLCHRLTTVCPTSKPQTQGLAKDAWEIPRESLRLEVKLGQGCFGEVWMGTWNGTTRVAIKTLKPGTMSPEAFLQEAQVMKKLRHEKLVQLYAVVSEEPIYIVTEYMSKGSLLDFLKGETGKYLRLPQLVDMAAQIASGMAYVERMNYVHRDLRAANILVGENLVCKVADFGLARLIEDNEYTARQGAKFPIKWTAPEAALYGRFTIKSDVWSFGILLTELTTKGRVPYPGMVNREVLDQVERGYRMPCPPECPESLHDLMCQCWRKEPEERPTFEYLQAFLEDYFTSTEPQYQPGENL
Sequence of S6K (P23443 whole entry): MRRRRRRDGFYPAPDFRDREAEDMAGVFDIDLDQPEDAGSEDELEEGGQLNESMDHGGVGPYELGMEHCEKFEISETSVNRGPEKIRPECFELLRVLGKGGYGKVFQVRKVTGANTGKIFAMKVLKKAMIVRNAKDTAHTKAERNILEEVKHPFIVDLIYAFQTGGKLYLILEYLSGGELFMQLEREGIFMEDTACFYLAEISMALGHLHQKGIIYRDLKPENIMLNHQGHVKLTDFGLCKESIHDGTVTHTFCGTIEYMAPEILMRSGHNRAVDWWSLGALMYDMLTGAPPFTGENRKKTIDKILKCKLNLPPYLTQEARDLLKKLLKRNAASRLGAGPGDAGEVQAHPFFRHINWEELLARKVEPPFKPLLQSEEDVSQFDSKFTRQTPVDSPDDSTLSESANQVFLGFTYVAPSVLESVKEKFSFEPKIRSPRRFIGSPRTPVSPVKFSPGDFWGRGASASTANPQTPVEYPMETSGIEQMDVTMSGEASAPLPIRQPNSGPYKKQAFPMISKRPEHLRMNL

SMILES	notum, scutellum and cuticle defects of ptc>dRetMEN2B adults (ptc>dRet^MEN2B flies)	animals rescued / developing to adulthood (ptc>dRet^MEN2B flies; [8])	rescue of ptc>dRetMEN2B viability (pupae, adults), in words (ptc>dRet^MEN2B flies; [8])	effect of reducing dTor on drug efficacy/toxicity (ptc>dRet^MEN2B flies; ptc>dRetMEN2B dTor-/+)	effect of reducing erk gene dosage on drug efficacy in viability assay (ptc>dRet^MEN2B flies)	basal phospho-Src in wing epithelium [1]	suppression of dRetMEN2B-induced proliferation, EMT, invasion/basal migration [1]	Src inhibition, in words (Src)	S6K inhibition, in words (S6K)	mTor inhibition, in words (mTor)	inhibition of MZ-CRC-1 cell viability / proliferation, in words [2]	IC50, fold more potent than Sorafenib ([2]; MZ-CRC-1 cell viability)	inhibition of TT cell viability / proliferation, in words [3]	IC50, fold lower than Vandetanib ([3]; TT cell line, dose-response)	reduction of tumor progression relative to vehicle [4] [fold]	toxicity as assessed by animal body weights [4]	tumor growth, in words [4]	pharmacokinetic profile, in words [5]	sensitivity to erlotinib [6]	apoptosis (PARP cleavage, BIM induction) [7]
CC(C)n1nc(-c2ccc(NC(=O)Nc3cccc(C(F)(F)F)c3)cc2)c2c(N)ncnc21 [AD57]	strongly suppressed; also recorded: complete suppression of notum and scutellum defects; also recorded: some cuticle defects	approximately 25%	best single-agent hit; also recorded: potently suppressed	dominantly suppressed the efficacy	considerably enhanced the efficacy	suppressed phospho-Src in basal regions of the wing epithelium	potent in vivo suppression; also recorded: strongly suppressed	potent inhibitor; also recorded: strongly inhibited	potent inhibitor	potent inhibitor	most potent inhibition	approximately 150 fold	most potent inhibition	more than 150 fold	~3	no detectable toxicity	displays antitumor activity; also recorded: significant suppression of tumor growth	pharmacokinetic profiles in a range that is similar to several clinical agents	confer dose-dependent sensitivity to erlotinib	enhances apoptosis
CC(C)n1nc(-c2ccc(NC(=O)Nc3cc(C(F)(F)F)ccc3F)cc2)c2c(N)ncnc21 [AD80]	phenotypically normal		improved rescue relative to AD57		did not alter efficacy	potently blocked	significantly improved suppression; also recorded: potently blocked	inhibited	inhibited	not and greatly reduced mTor activity and lack significant inhibitory activity	inhibited proliferation		inhibited proliferation		3.1	reduced body weight modulation relative to Vandetanib	enhanced tumor growth inhibition	pharmacokinetic profiles in a range that is similar to several clinical agents	confer dose-dependent sensitivity to erlotinib	enhances apoptosis
